Laboratory results published in patent US20250108007A1, “LIPID COMPOUND AND LIPID NANOPARTICLE COMPOSITION” (SUZHOU ABOGEN BIOSCIENCES CO., LTD., priority 2021, published 2025).

Legend:
[1] = Size and polydispersity of lipid nanoparticles by dynamic light scattering; assay type: physicochemical; settings: LNP cationic lipid/DSPC/cholesterol/PEG-lipid 50:10:38.5:1.5 with mRNA
Description: (§1) Briefly, the cationic lipid, DSPC, cholesterol and PEG-lipid provided by the present invention were dissolved in ethanol at a molar ratio of 50:10:38.5:1.5, and mRNA was diluted in a citrate buffer at 10-50 mM, pH=4. The ethanolic lipid solution and the mRNA aqueous solution were mixed at a volume ratio of 1:3 by a microfluidic device at a flow rate of 9-30 mL/min, so as to prepare LNP at a weight ratio of total lipid to mRNA of about 10:1 to 30:1. PBS for dialysis was used instead of ethanol, thereby removing ethanol. Finally, the lipid nanoparticles were filtered through a 0.2 μm sterile filter.
(§2) The size of the lipid nanoparticles was determined by dynamic light scattering using 173° backscatter detection mode of Malvern Zetasizer Nano ZS (Malvern UK). According to the description of the manufacturer, the encapsulation efficiency of the lipid nanoparticle was determined using a Quant-it Ribogreen RNA quantitative assay kit (Thermo Fisher Scientific, UK).

[2] = Encapsulation efficiency of lipid nanoparticles (Quant-it Ribogreen RNA assay); assay type: physicochemical; settings: LNP cationic lipid/DSPC/cholesterol/PEG-lipid 50:10:38.5:1.5 with mRNA
Description: as §1, §2

[3] = system: female ICR mice; assay: hEPO mRNA lipid nanoparticles in mice, serum EPO by ELISA; assay type: in vivo; settings: hEPO mRNA LNP, 0.5 mg/kg, tail vein injection, blood e.g. 6 hours after administration, relative to MC3 LNP positive control
Description: Lipid nanoparticles including human erythropoietin (hEPO) mRNA encapsulated by compound in the following table were administered at a dose of 0.5 mg/kg to female ICR mice at 6-8 weeks of age (Xipuer-Bikai, Shanghai) via tail vein injection. Mouse blood samples were taken at specific time points (e.g., 6 hours) after administration. In addition to the above test groups, the lipid nanoparticles including dilinoleylmethyl-4-dimethylaminobutyrate (DLin-MC3-DMA, commonly abbreviated as MC3) encapsulated hEPO mRNA were administered at the same dose to mice of similar age and sex as positive controls.
After the last sampling time point, the mice were euthanized by excess CO2. Serum was separated from whole blood by centrifugation at 5,000 g for 10 minutes at 4° C., snap frozen and stored at −80° C. for analysis. ELSA analysis was performed using a commercially available kit (DEP00, R&D system) according to the manufacturer instructions.
The following table lists the characteristics of the tested lipid nanoparticles, including the expression levels measured from the test group above MC3.

| Structure (SMILES) | Polydispersity index (PDI) [1] | Size (nm) [1] [nm] | Encapsulation efficiency (EE %) [2] [%] | EPO expression relative to MC3 [3] |
| --- | --- | --- | --- | --- |
| CCCCCCCCC(CCCCCCCC)COC(=O)CCCCCN(CCCCCC(=O)OCC(CCCCCCCC)CCCCCCCC)CC1(O)CCN(C(=O)CCCN(C)C)CC1 [Compound 1] | 0.257 | 68.14 | 99.1 | Not detected |
| CCCCCCCCC(CCCCCCCC)COC(=O)CCCCCN(CCCCCC(=O)OCC(CCCCCCCC)CCCCCCCC)CC1(O)CCN(C)CC1 [Compound 2] | 0.114 | 80.02 | 98.1 | Not detected |
| CCCCCCCCC(CCCCCCCC)COC(=O)CCCCCN(CCCCCC(=O)OCC(CCCCCCCC)CCCCCCCC)CC1(O)CCN(C(=O)CN(C)C)CC1 [Compound 3] | 0.248 | 78.45 | 97.3 | Not detected |
| CCCCCCCCC(CCCCCCCC)COC(=O)CCCCCN(CCCCCC(=O)OCC(CCCCCCCC)CCCCCCCC)CC1(O)CCN(C(=O)CCCCN(C)C)CC1 [Compound 4] | 0.28 | 55.63 | 98.4 | Not detected |
| CCCCCCCCC(CCCCCCCC)COC(=O)CCCCCN(CCCCCC(=O)OCC(CCCCCCCC)CCCCCCCC)CC1(O)CCN(CCC)CC1 [Compound 6] | 0.034 | 83.23 | 92.8 | A (A: ≥2) |
| CCCCCCCCC(CCCCCCCC)COC(=O)CCCCCN(CCCCCC(=O)OCC(CCCCCCCC)CCCCCCCC)CCC(=O)N1CCC(O)(CN(C)C)CC1 [Compound 7] | 0.073 | 43.78 | 97.6 | Not detected |
| CCCCCCCCC(CCCCCCCC)COC(=O)CCCCCN1CCC(O)(CN(CCCCCC(=O)OCC(CCCCCCCC)CCCCCCCC)C2CCC2)CC1 [Compound 8] | 0.16 | 54.23 | 93.7 | C (C: ≥0.1 and <1) |
| CCCCCCCCC(CCCCCC)COC(=O)CCCCCN(CCCCCC(=O)OCC(CCCCCC)CCCCCCCC)CCCCCC(=O)N1CCC(O)(CN(C)C)CC1 (centres unmarked) [Compound 9] | 0.212 | 35.26 | 97.6 | Not detected |
| CCCCCCCCC(CCCCCC)COC(=O)CCCCCN(CCCCCC(=O)OCC(CCCCCC)CCCCCCCC)CCN1CCC(O)(CN(C)CC)CC1 (centres unmarked) [Compound 10] | 0.083 | 133.3 | 96.7 | Not detected |
| CCCCCCCCC(CCCCCC)COC(=O)CCCCCN(C)CC1(O)CCN(CCCCCC(=O)OCC(CCCCCC)CCCCCCCC)CC1 (centres unmarked) [Compound 11] | 0.045 | 86.19 | 96.8 | B (B: ≥1 and <2) |
| CCCCCCCCC(CCCCCC)COC(=O)CCCCCN1CCC(O)(CN(CCCCCC(=O)OCC(CCCCCC)CCCCCCCC)C2CCCC2)CC1 (centres unmarked) [Compound 12] | 0.084 | 109.1 | 81.5 | C (C: ≥0.1 and <1) |
| CCCCCCCCC(CCCCCC)COC(=O)CCCCCN1CCC(O)(CN(CCCCCC(=O)OCC(CCCCCC)CCCCCCCC)C2CCCCC2)CC1 (centres unmarked) [Compound 13] | 0.049 | 117.7 | 83.9 | C (C: ≥0.1 and <1) |
| CCCCCCCCC(CCCCCC)COC(=O)CCCCCN(CCCCCC(=O)OCC(CCCCCC)CCCCCCCC)CCN1CCC(O)(CN(C)C)CC1 (centres unmarked) [Compound 14] | 0.139 | 97.33 | 97.3 | Not detected |
| CCCCCCCCC(CCCCCC)CC(=O)OCC(CCCCN1CCC(O)(CN(C)C)CC1)COC(=O)CC(CCCCCC)CCCCCCCC (centres unmarked) [Compound 15] | 0.06 | 53.67 | 94.3 | Not detected |
